Structures can show the parent of a compound that is named as a salt. Values belong to the compound of their own block, whether it stands above or below them.
Legend:
[1] = Solubility of ziprasidone hydrochloride monohydrate in various solvents (Table 1); type: physicochemical
[2] = Solubility of ziprasidone hydrochloride monohydrate in excipients (Table 2); type: physicochemical
Description: Solubility in various excipients that are frequently used to improve solubility was also tested and the results thereof are in Table 2 below.

[3] = Within 45 minutes; pH 7.5, 900 ml aqueous monobasic sodium phosphate with 2w/v % Na dodecyl sulfate, USP 2 paddles 75 rpm; formulation of U.S. Pat. No. 6,150,366, mean particle size <85 microns; cited from earlier work

- solubility ([1]; solvent ACN): <1%
- solubility ([1]; solvent Acetone): <1%
- solubility ([1]; solvent Acetone/water): <1%
- solubility ([1]; solvent DCM): <1%
- solubility ([1]; solvent DMF/DMA/DMSO): 1.5%
- solubility ([1]; solvent DMF/water 80/20): <1%
- solubility ([1]; solvent Ethanol): <1%
- solubility ([1]; solvent Isopropanol): <1%
- solubility ([1]; solvent Methanol): 1.5%
- solubility ([1]; solvent Methanol/acetic acid 90/10): <1%
- solubility ([1]; solvent Methanol/water 60/40): <1%
- solubility ([1]; solvent Methanol/water 80/20): 1.5%
- solubility ([1]; solvent THF): <1%
- solubility ([2]; 0.1 N HCl solution, simulated gastric fluid): 500 µg/mL
- solubility ([2]; 5% caprolactam in water, aqueous with cosolvent or surfactant or cyclodextrin, 5% caprolactam in solution in water): 300 µg/mL
- solubility ([2]; 20% Lactic acid in PEG 400, organic solvent or mixture): 1300 µg/mL
- solubility ([2]; 20% Lutrol in TPGS, organic solvent or mixture): 1000 µg/mL
- solubility ([2]; Benzyl alcohol, organic solvent or mixture): 2900 µg/mL
- solubility ([2]; Benzyl benzoate, organic solvent or mixture): 300 µg/mL
- solubility ([2]; Ethanol, organic solvent or mixture): 400 µg/mL
- solubility ([2]; Gelucire 44/14, oil or lipid): 1000 µg/mL
- solubility ([2]; Gelucire 50/13, oil or lipid): 1000 µg/mL
- solubility ([2]; Glacial acetic acid, organic solvent or mixture): 2800 µg/mL
- solubility ([2]; Glycerol, organic solvent or mixture): 1250 µg/mL
- solubility ([2]; Labrofac (Capric triglyceride PEG-4 ester), oil or lipid): 900 µg/mL
- solubility ([2]; Lactic acid (85% strength), organic solvent or mixture): 10000 µg/mL
- solubility ([2]; Maisine 35-1 (glycerol monolinoleate), oil or lipid): 1000 µg/mL
- solubility ([2]; N-methyl 2-pyrrolidone, organic solvent or mixture): 10000 µg/mL
- solubility ([2]; PEG 400, organic solvent or mixture): 2500 µg/mL
- solubility ([2]; PEG 6000, organic solvent or mixture): 2500 µg/mL
- solubility ([2]; Peceol (glycerol monooleate 40), oil or lipid): 1000 µg/mL
- solubility ([2]; Propylene glycol, organic solvent or mixture): 2000 µg/mL
- solubility ([2]; Span 80, organic solvent or mixture): 500 µg/mL
- solubility ([2]; Tween 20, organic solvent or mixture): 3000 µg/mL
- solubility ([2]; Tween 80, organic solvent or mixture): 2100 µg/mL
- solubility ([2]; Water): 30 µg/mL
- solubility ([2]; aqueous buffer, Phosphate buffer pH 6.8 (without SLS)): < 10 µg/mL
Compound: O=C1Cc2cc(CCN3CCN(c4nsc5ccccc45)CC3)c(Cl)cc2N1 [Ziprasidone HCl monohydrate, ziprasidone hydrochloride monohydrate]

Compound: Ziprasidone
- ziprasidone dissolved [3]: 70%
